Measurements taken from the supplement of paper PMC11451515.

How the values were obtained:
Conditions in all cases: 48 h
NOMO1 = experiment: cell viability relative to DMSO control; higher = less cytotoxic
In short: (§1)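 Viability, reported as a per-plate percentage of DMSO wells with cell-free wells as background, came from CellTiter-Glo One luminescence. Reading took place after 48 h at 37°C. Before that, NOMO1 or SEM (500 cells/well) or P12-Ichikawa (1000 cells/well) leukemia cells, adapted for at least four passages in each medium, were seeded in 1536-well plates (5 μl) and pin-dosed with library compounds in DMSO, 47 μM to 0.79 nM over 11 threefold points.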

SEM cells = experiment: as above
In short: as §1

P12-Ichikawa [1] = experiment: as above
In short: as §1

P12-Ichikawa [2] = experiment: AUC of viability dose-response curve (% viability x log10 dose units); higher = less sensitive
In short: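 Seeding of medium-adapted leukemia cells was at 500 or 1000 cells/well in 1536-well plates, followed by 48 h at 37°C with library compounds in DMSO at 11 threefold doses from 47 μM to 0.79 nM. CellTiter-Glo One luminescence was normalised per plate to DMSO and cell-free wells and fitted as a four-parameter log-logistic function of log10 dose. Area under the curve was integrated by trapezoidal rule, with curves exceeding full viability scaled and curves failing quality control removed.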

[3] = HPLM + 10% dialyzed FBS, 0.000781 µM
[4] = HPLM + 10% dialyzed FBS, 0.00234 µM
[5] = HPLM + 10% dialyzed FBS, 0.00702 µM
[6] = HPLM + 10% dialyzed FBS, 0.0211 µM
[7] = HPLM + 10% dialyzed FBS, 0.0632 µM
[8] = HPLM + 10% dialyzed FBS, 0.19 µM
[9] = HPLM + 10% dialyzed FBS, 0.569 µM
[10] = HPLM + 10% dialyzed FBS, 1.71 µM
[11] = HPLM + 10% dialyzed FBS, 5.12 µM
[12] = HPLM + 10% dialyzed FBS, 15.4 µM
[13] = HPLM + 10% dialyzed FBS, 46.1 µM
[14] = RPMI 5 mM glucose + 10% FBS, 0.000781 µM
[15] = RPMI 5 mM glucose + 10% FBS, 0.00234 µM
[16] = RPMI 5 mM glucose + 10% FBS, 0.00702 µM
[17] = RPMI 5 mM glucose + 10% FBS, 0.0211 µM
[18] = RPMI 5 mM glucose + 10% FBS, 0.0632 µM
[19] = RPMI 5 mM glucose + 10% FBS, 0.19 µM
[20] = RPMI 5 mM glucose + 10% FBS, 0.569 µM
[21] = RPMI 5 mM glucose + 10% FBS, 1.71 µM
[22] = RPMI 5 mM glucose + 10% FBS, 5.12 µM
[23] = RPMI 5 mM glucose + 10% FBS, 15.4 µM
[24] = RPMI 5 mM glucose + 10% FBS, 46.1 µM
[25] = RPMI 5 mM glucose + 10% dialyzed FBS, 0.000781 µM
[26] = RPMI 5 mM glucose + 10% dialyzed FBS, 0.00234 µM
[27] = RPMI 5 mM glucose + 10% dialyzed FBS, 0.00702 µM
[28] = RPMI 5 mM glucose + 10% dialyzed FBS, 0.0211 µM
[29] = RPMI 5 mM glucose + 10% dialyzed FBS, 0.0632 µM
[30] = RPMI 5 mM glucose + 10% dialyzed FBS, 0.19 µM
[31] = RPMI 5 mM glucose + 10% dialyzed FBS, 0.569 µM
[32] = RPMI 5 mM glucose + 10% dialyzed FBS, 1.71 µM
[33] = RPMI 5 mM glucose + 10% dialyzed FBS, 5.12 µM
[34] = RPMI 5 mM glucose + 10% dialyzed FBS, 15.4 µM
[35] = RPMI 5 mM glucose + 10% dialyzed FBS, 46.1 µM

Cc1cnc(Nc2ccc(CN3CCOCC3)cc2)nc1Nc1cccc([S+](=O)([O-])NC(C)(C)C)c1
cell viability (NOMO1; [3]): 87.4% | cell viability (NOMO1; [4]): 98.1% | cell viability (NOMO1; [5]): 99.1% | cell viability (NOMO1; [6]): 86.6% | cell viability (NOMO1; [7]): 81.3% | cell viability (NOMO1; [8]): 86.9% | cell viability (NOMO1; [9]): 93.7% | cell viability (NOMO1; [10]): 75.6% | cell viability (NOMO1; [11]): 48.1% | cell viability (NOMO1; [12]): 15.5% | cell viability (NOMO1; [13]): 10.3% | cell viability (NOMO1; [14]): 67.8% | cell viability (NOMO1; [15]): 80% | cell viability (NOMO1; [16]): 79.7% | cell viability (NOMO1; [17]): 71.5% | cell viability (NOMO1; [18]): 75.1% | cell viability (NOMO1; [19]): 74.2% | cell viability (NOMO1; [20]): 78.9% | cell viability (NOMO1; [21]): 68% | cell viability (NOMO1; [22]): 30.8% | cell viability (NOMO1; [23]): 8.44% | cell viability (NOMO1; [24]): 7.72% | cell viability (NOMO1; [25]): 75.4% | cell viability (NOMO1; [26]): 85.6% | cell viability (NOMO1; [27]): 89.4% | cell viability (NOMO1; [28]): 79.2% | cell viability (NOMO1; [29]): 84.4% | cell viability (NOMO1; [30]): 80.8% | cell viability (NOMO1; [31]): 57.8% | cell viability (NOMO1; [32]): 69.8% | cell viability (NOMO1; [33]): 38.3% | cell viability (NOMO1; [34]): 11.6% | cell viability (NOMO1; [35]): 9.38% | cell viability (SEM cells; [3]): 65% | cell viability (SEM cells; [4]): 83.2% | cell viability (SEM cells; [5]): 77.8% | cell viability (SEM cells; [6]): 72.9% | cell viability (SEM cells; [7]): 83.4% | cell viability (SEM cells; [8]): 39.3% | cell viability (SEM cells; [9]): 58% | cell viability (SEM cells; [10]): 23.1% | cell viability (SEM cells; [11]): 5.99% | cell viability (SEM cells; [12]): 2.23% | cell viability (SEM cells; [13]): 1.78% | cell viability (SEM cells; [14]): 87.5% | cell viability (SEM cells; [15]): 86.9% | cell viability (SEM cells; [16]): 102% | cell viability (SEM cells; [17]): 87.8% | cell viability (SEM cells; [18]): 83.5% | cell viability (SEM cells; [19]): 44% | cell viability (SEM cells; [20]): 59.3% | cell viability (SEM cells; [21]): 19.4% | cell viability (SEM cells; [22]): 5.03% | cell viability (SEM cells; [23]): 2.53% | cell viability (SEM cells; [24]): 2.58% | cell viability (SEM cells; [25]): 69.5% | cell viability (SEM cells; [26]): 81.9% | cell viability (SEM cells; [27]): 82.4% | cell viability (SEM cells; [28]): 86% | cell viability (SEM cells; [29]): 84.2% | cell viability (SEM cells; [30]): 37.7% | cell viability (SEM cells; [31]): 20.7% | cell viability (SEM cells; [32]): 16.5% | cell viability (SEM cells; [33]): 6.18% | cell viability (SEM cells; [34]): 2.42% | cell viability (SEM cells; [35]): 2.01% | cell viability (P12-Ichikawa [1]; [3]): 80% | cell viability (P12-Ichikawa [1]; [4]): 81.1% | cell viability (P12-Ichikawa [1]; [5]): 81.2% | cell viability (P12-Ichikawa [1]; [6]): 82.7% | cell viability (P12-Ichikawa [1]; [7]): 89.1% | cell viability (P12-Ichikawa [1]; [8]): 80.3% | cell viability (P12-Ichikawa [1]; [9]): 83.6% | cell viability (P12-Ichikawa [1]; [10]): 77.3% | cell viability (P12-Ichikawa [1]; [11]): 9.27% | cell viability (P12-Ichikawa [1]; [12]): 3.06% | cell viability (P12-Ichikawa [1]; [13]): 1.03% | cell viability (P12-Ichikawa [1]; [14]): 81.2% | cell viability (P12-Ichikawa [1]; [15]): 83.3% | cell viability (P12-Ichikawa [1]; [16]): 83.8% | cell viability (P12-Ichikawa [1]; [17]): 84.9% | cell viability (P12-Ichikawa [1]; [18]): 87.7% | cell viability (P12-Ichikawa [1]; [19]): 74.2% | cell viability (P12-Ichikawa [1]; [20]): 67.9% | cell viability (P12-Ichikawa [1]; [21]): 76.2% | cell viability (P12-Ichikawa [1]; [22]): 22.9% | cell viability (P12-Ichikawa [1]; [23]): 5.69% | cell viability (P12-Ichikawa [1]; [24]): 3.76% | cell viability (P12-Ichikawa [1]; [25]): 69.9% | cell viability (P12-Ichikawa [1]; [26]): 84.2% | cell viability (P12-Ichikawa [1]; [27]): 74.6% | cell viability (P12-Ichikawa [1]; [28]): 81.3% | cell viability (P12-Ichikawa [1]; [29]): 81% | cell viability (P12-Ichikawa [1]; [30]): 72.6% | cell viability (P12-Ichikawa [1]; [31]): 75% | cell viability (P12-Ichikawa [1]; [32]): 71.6% | cell viability (P12-Ichikawa [1]; [33]): 31.2% | cell viability (P12-Ichikawa [1]; [34]): 6.47% | cell viability (P12-Ichikawa [1]; [35]): 5.08% | AUC of viability dose-response curve (P12-Ichikawa [2]; HPLM + 10% dialyzed FBS): 299 | AUC of viability dose-response curve (P12-Ichikawa [2]; RPMI 5 mM glucose + 10% FBS): 300 | AUC of viability dose-response curve (P12-Ichikawa [2]; RPMI 5 mM glucose + 10% dialyzed FBS): 292
